The values below come from patent publication US12331046B2, “CTPS1 inhibitors and uses thereof” (Nimbus Clotho, Inc., priority 2020, dated 2025).

Structures can show the parent of a compound that is named as a salt.

For this assay, the target named is human CTPS1 (Homo sapiens (Human), UniProt P17812). Kind of assay: hCTPS1 biochemical assay (ADP-Glo). To be noted: hCTPS1 25 nM, ATP 120 uM, UTP 160 uM, GTP 60 uM, L-Glutamine 100 uM, 25 degrees C.
human CTPS1, sequence (P17812 whole entry): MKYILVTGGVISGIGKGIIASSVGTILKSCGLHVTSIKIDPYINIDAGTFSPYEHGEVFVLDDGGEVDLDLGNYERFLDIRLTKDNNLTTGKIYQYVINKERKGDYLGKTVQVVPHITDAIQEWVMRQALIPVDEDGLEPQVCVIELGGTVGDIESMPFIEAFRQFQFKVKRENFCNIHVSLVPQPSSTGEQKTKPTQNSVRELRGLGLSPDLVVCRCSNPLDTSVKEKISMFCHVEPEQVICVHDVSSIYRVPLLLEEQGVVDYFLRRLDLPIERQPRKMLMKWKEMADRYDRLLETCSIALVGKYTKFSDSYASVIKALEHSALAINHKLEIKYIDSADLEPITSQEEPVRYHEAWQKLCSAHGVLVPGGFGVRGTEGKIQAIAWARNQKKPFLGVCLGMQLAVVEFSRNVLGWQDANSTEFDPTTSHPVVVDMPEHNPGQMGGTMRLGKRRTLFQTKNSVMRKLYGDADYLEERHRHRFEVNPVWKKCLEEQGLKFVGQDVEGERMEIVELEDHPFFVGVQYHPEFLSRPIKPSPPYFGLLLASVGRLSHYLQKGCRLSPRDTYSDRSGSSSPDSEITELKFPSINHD
For `CCOc1cncc(-c2cnc(C(=O)N[C@@H](c3cc(NS(=O)(=O)C4CC4)ccn3)C3CCN(C)CC3)s2)n1` [I-147, (R)—N-((4-(cyclopropanesulfonamido)pyridin-2-yl)(1-methylpiperidin-4-yl)methyl)-5-(6-ethoxypyrazin-2-yl)thiazole-2-carboxamide], the IC50 was < 100 nM.

In the case of `CCOc1cncc(-c2cnc(C(=O)N[C@H](c3cc(NS(=O)(=O)C4CC4)ccn3)C3CCN(C)CC3)s2)n1` [I-148, (S)—N-((4-(cyclopropanesulfonamido)pyridin-2-yl)(1-methylpiperidin-4-yl)methyl)-5-(6-ethoxypyrazin-2-yl)thiazole-2-carboxamide], the IC50 was < 100 nM.

As to `CCn1ncc2ncc(-c3cnc(C(=O)NCc4cc(NS(=O)(=O)C5CC5)ccn4)s3)nc21` [I-149, N-((4-(cyclopropanesulfonamido)pyridin-2-yl)methyl)-5-(1-ethyl-1H-pyrazolo[3,4-b]pyrazin-6-yl)thiazole-2-carboxamide], the IC50 is ≥ 1000 nM.

`CC[C@H](NC(=O)c1ncc(-c2cnn3ccc(Cl)cc23)s1)c1cc(NS(=O)(=O)C2CC2)ccn1` [I-150, (S)-5-(5-chloropyrazolo[1,5-a]pyridin-3-yl)-N-(1-(4-(cyclopropanesulfonamido)pyridin-2-yl)propyl)thiazole-2-carboxamide]: the IC50 is < 100 nM.

On to `CC[C@@H](NC(=O)c1ncc(-c2cnn3ccc(Cl)cc23)s1)c1cc(NS(=O)(=O)C2CC2)ccn1` [I-151, (R)-5-(5-chloropyrazolo[1,5-a]pyridin-3-yl)-N-(1-(4-(cyclopropanesulfonamido)pyridin-2-yl)propyl)thiazole-2-carboxamide], for which the IC50 was < 100 nM.

As for `CCOc1cncc(-c2cnc(C(=O)NC(CCN(C)C)c3cccc(NS(=O)(=O)C4CC4)c3)s2)n1` (stereo not shown) [I-152, N-(1-(3-(cyclopropanesulfonamido)phenyl)-3-(dimethylamino)propyl)-5-(6-ethoxypyrazin-2-yl)thiazole-2-carboxamide], the IC50 is < 100 nM.

Consider `CCOc1cncc(-c2cnc(C(=O)NC(c3cc(NS(=O)(=O)C4CC4)ccn3)C3CCNCC3)s2)n1` (stereo not shown) [I-153, N-((4-(cyclopropanesulfonamido)pyridin-2-yl)(piperidin-4-yl)methyl)-5-(6-ethoxypyrazin-2-yl)thiazole-2-carboxamide], for which the IC50 is < 100 nM.

Turning to `O=C(NCc1cc(NS(=O)(=O)C2CC2)ccn1)c1ncc(-c2cncc3c(Cl)cnn23)s1` [I-154], the IC50 was < 100 nM.

As for `CCOc1cncc(-c2cnc(C(=O)N[C@@H](CCCN(C)C)c3cc(NS(=O)(=O)C4CC4)ccn3)s2)n1` [I-155, (S)—N-(1-(4-(cyclopropanesulfonamido)pyridin-2-yl)-4-(dimethylamino)butyl)-5-(6-ethoxypyrazin-2-yl)thiazole-2-carboxamide], the IC50 is < 100 nM.

Turning to `CCOc1cncc(-c2cnc(C(=O)N[C@H](CCCN(C)C)c3cc(NS(=O)(=O)C4CC4)ccn3)s2)n1` [I-156, (R)—N-(1-(4-(cyclopropanesulfonamido)pyridin-2-yl)-4-(dimethylamino)butyl)-5-(6-ethoxypyrazin-2-yl)thiazole-2-carboxamide], the 50% inhibitory concentration (IC50) was < 100 nM.

`CCOc1cncc(-c2cnc(C(=O)N[C@](C)(CCOC)c3cc(NS(=O)(=O)C4CC4)ccn3)s2)n1` [I-157, (R)—N-(2-(4-(cyclopropanesulfonamido)pyridin-2-yl)-4-methoxybutan-2-yl)-5-(6-ethoxypyrazin-2-yl)thiazole-2-carboxamide] yielded an IC50 of 100 to 1000 nM.

For the molecule `CCOc1cncc(-c2cnc(C(=O)N[C@H](CCN3CCCC3)c3cc(NS(=O)(=O)C4CC4)ccn3)s2)n1` [I-158, (R)—N-(1-(4-(cyclopropanesulfonamido)pyridin-2-yl)-3-(pyrrolidin-1-yl)propyl)-5-(6-ethoxypyrazin-2-yl)thiazole-2-carboxamide], the IC50 is < 100 nM.

As for `CCOc1cncc(-c2cnc(C(=O)N[C@@H](CCN3CCCC3)c3cc(NS(=O)(=O)C4CC4)ccn3)s2)n1` [I-159, (S)—N-(1-(4-(cyclopropanesulfonamido)pyridin-2-yl)-3-(pyrrolidin-1-yl)propyl)-5-(6-ethoxypyrazin-2-yl)thiazole-2-carboxamide], the IC50 is < 100 nM.

In turn, `CCOc1cncc(-c2cnc(C(=O)N[C@H](CCN3CCCCC3)c3cc(NS(=O)(=O)C4CC4)ccn3)s2)n1` [I-160, (R)—N-(1-(4-(cyclopropanesulfonamido)pyridin-2-yl)-3-(piperidin-1-yl)propyl)-5-(6-ethoxypyrazin-2-yl)thiazole-2-carboxamide] displayed an IC50 of 100 to 1000 nM.

In the case of `CCOc1cncc(-c2cnc(C(=O)N[C@@H](CCN3CCCCC3)c3cc(NS(=O)(=O)C4CC4)ccn3)s2)n1` [I-161, (S)—N-(1-(4-(cyclopropanesulfonamido)pyridin-2-yl)-3-(piperidin-1-yl)propyl)-5-(6-ethoxypyrazin-2-yl)thiazole-2-carboxamide], the half-inhibitory concentration (IC50) was < 100 nM.

`Cc1cc2c(=O)[nH]c3ccc(C(=O)NCc4cc(NS(=O)(=O)C5CC5)ccn4)cc3n2c1` [I-162]: the IC50 was 100 to 1000 nM.

`CCOc1cncc(-c2cnc(C(=O)N[C@@](C)(CCOC)c3cc(NS(=O)(=O)C4CC4)ccn3)s2)n1` [I-163, (S)—N-(2-(4-(cyclopropanesulfonamido)pyridin-2-yl)-4-methoxybutan-2-yl)-5-(6-ethoxypyrazin-2-yl)thiazole-2-carboxamide]: the IC50 was < 100 nM.

As to `CCOc1cncc(-c2cnc(C(=O)N[C@H](CCN3CCOCC3)c3cc(NS(=O)(=O)C4CC4)ccn3)s2)n1` [I-164, (R)—N-(1-(4-(cyclopropanesulfonamido)pyridin-2-yl)-3-morpholinopropyl)-5-(6-ethoxypyrazin-2-yl)thiazole-2-carboxamide], the IC50 is < 100 nM.

As to `CCOc1cncc(-c2cnc(C(=O)N[C@@H](CCN3CCOCC3)c3cc(NS(=O)(=O)C4CC4)ccn3)s2)n1` [I-165, (S)—N-(1-(4-(cyclopropanesulfonamido)pyridin-2-yl)-3-morpholinopropyl)-5-(6-ethoxypyrazin-2-yl)thiazole-2-carboxamide], the IC50 is < 100 nM.

Take `CCOc1cncc(-c2cnc(C(=O)NC(CCCN)c3cc(NS(=O)(=O)C4CC4)ccn3)s2)n1` (stereo not shown) [I-166, N-(4-amino-1-(4-(cyclopropanesulfonamido)pyridin-2-yl)butyl)-5-(6-ethoxypyrazin-2-yl)thiazole-2-carboxamide]: the IC50 was < 100 nM.

For `CCOc1cncc(-c2cnc(C(=O)N3CCNC[C@@H]3c3ccnc(NS(=O)(=O)C4CC4)n3)s2)n1` [I-167, (R)—N-(4-(1-(5-(6-ethoxypyrazin-2-yl)thiazole-2-carbonyl)piperazin-2-yl)pyrimidin-2-yl)cyclopropanesulfonamide], the IC50 is ≥ 1000 nM.

`CCOc1cncc(-c2cnc(C(=O)N3CCNC[C@H]3c3ccnc(NS(=O)(=O)C4CC4)n3)s2)n1` [I-168, (S)—N-(4-(1-(5-(6-ethoxypyrazin-2-yl)thiazole-2-carbonyl)piperazin-2-yl)pyrimidin-2-yl)cyclopropanesulfonamide] showed a half-maximal inhibitory concentration (IC50) of 100 to 1000 nM.

`O=C(NCc1cc(NS(=O)(=O)C2CC2)ccn1)c1ncc(-c2cnc3ccc(Cl)cn23)s1` [I-170]: the IC50 fell in the range of 100 to 1000 nM.

In the case of `CCc1nc2cc(C(=O)NCc3cc(NS(=O)(=O)C4CC4)ccn3)ccc2[nH]c1=O` [I-171, N-((4-(cyclopropanesulfonamido)pyridin-2-yl)methyl)-3-ethyl-2-oxo-1,2-dihydroquinoxaline-6-carboxamide], the IC50 was ≥ 1000 nM.

As to `CCOc1cncc(-c2cnc(C(=O)N[C@H](C[C@H]3CCCCN3)c3cc(NS(=O)(=O)C4CC4)ccn3)s2)n1` [I-172, N—((R)-1-(4-(cyclopropanesulfonamido)pyridin-2-yl)-2-((R)-piperidin-2-yl)ethyl)-5-(6-ethoxypyrazin-2-yl)thiazole-2-carboxamide], the half-maximal inhibitory concentration (IC50) was < 100 nM.

With `CCOc1cncc(-c2cnc(C(=O)NC(CCCN(C)C)c3cc(NS(=O)(=O)C4CC4)ccn3)s2)n1` (stereo not shown) [I-173, N-(1-(4-(cyclopropanesulfonamido)pyridin-2-yl)-4-(dimethylamino)butyl)-5-(6-ethoxypyrazin-2-yl)thiazole-2-carboxamide, formic acid salt], the half-maximal inhibitory concentration (IC50) was < 100 nM.

Take `CCC(NC(=O)c1ncc(-c2cnn3ccc(Cl)cc23)s1)c1cc(NS(=O)(=O)C2CC2)ccn1` (stereo not shown) [I-174]: the IC50 was < 100 nM.

Take `CCOc1cncc(-c2cnc(C(=O)NC(CCN3CCCC3)c3cc(NS(=O)(=O)C4CC4)ccn3)s2)n1` (stereo not shown) [I-175, N-(1-(4-(cyclopropanesulfonamido)pyridin-2-yl)-3-(pyrrolidin-1-yl)propyl)-5-(6-ethoxypyrazin-2-yl)thiazole-2-carboxamide]: the IC50 is < 100 nM.

With `CCOc1cncc(-c2cnc(C(=O)NC(CCN3CCCCC3)c3cc(NS(=O)(=O)C4CC4)ccn3)s2)n1` (stereo not shown) [I-176, N-(1-(4-(cyclopropanesulfonamido)pyridin-2-yl)-3-(piperidin-1-yl)propyl)-5-(6-ethoxypyrazin-2-yl)thiazole-2-carboxamide], the IC50 is < 100 nM.

`O=C(NCc1cc(NS(=O)(=O)C2CC2)ccn1)c1ncc(-c2cnn3ccc(C(F)(F)F)cc23)s1` [I-177]: the half-inhibitory concentration (IC50) was < 100 nM.

For the molecule `CCOc1cncc(-c2cnc(C(=O)NC(C)(CCOC)c3cc(NS(=O)(=O)C4CC4)ccn3)s2)n1` (stereo not shown) [I-178], the IC50 is 100 to 1000 nM.

For `CCOc1cncc(-c2cnc(C(=O)NC(CCN3CCOCC3)c3cc(NS(=O)(=O)C4CC4)ccn3)s2)n1` (stereo not shown) [I-179, N-(1-(4-(cyclopropanesulfonamido)pyridin-2-yl)-3-morpholinopropyl)-5-(6-ethoxypyrazin-2-yl)thiazole-2-carboxamide], the IC50 was < 100 nM.

Turning to `CCc1nc2ccc(C(=O)NCc3cc(NS(=O)(=O)C4CC4)ccn3)cc2[nH]c1=O` [I-180, N-((4-(cyclopropanesulfonamido)pyridin-2-yl)methyl)-2-ethyl-3-oxo-3,4-dihydroquinoxaline-6-carboxamide], the IC50 is ≥ 1000 nM.

The molecule `CCOc1cncc(-c2cnc(C(=O)N3CCNCC3c3ccnc(NS(=O)(=O)C4CC4)n3)s2)n1` (stereo not shown) [I-181, N-(4-{1-[5-(6-ethoxypyrazin-2-yl)-1,3-thiazole-2-carbonyl]piperazin-2-yl}pyrimidin-2-yl)cyclopropanesulfonamide] came in with an IC50 of 100 to 1000 nM.
